In the test the target is T1, Ubiquitin Specific Protease 7 (USP-7) (Homo sapiens, UniProt Q93009).
T1 construct: gene USP7; recombinant USP-7 (BPS Bioscience kit #79256)
The test can be described thus: Ub-AMC fluorescence enzyme assay; supported by DARTS immunoblotting and t-LiP-MRM in HTLA-230 lysate. Type of test: biochemical. For orientation: A western blot detects proteins with antibodies after separation by electrophoresis.

T1 sequence (Q93009 whole entry): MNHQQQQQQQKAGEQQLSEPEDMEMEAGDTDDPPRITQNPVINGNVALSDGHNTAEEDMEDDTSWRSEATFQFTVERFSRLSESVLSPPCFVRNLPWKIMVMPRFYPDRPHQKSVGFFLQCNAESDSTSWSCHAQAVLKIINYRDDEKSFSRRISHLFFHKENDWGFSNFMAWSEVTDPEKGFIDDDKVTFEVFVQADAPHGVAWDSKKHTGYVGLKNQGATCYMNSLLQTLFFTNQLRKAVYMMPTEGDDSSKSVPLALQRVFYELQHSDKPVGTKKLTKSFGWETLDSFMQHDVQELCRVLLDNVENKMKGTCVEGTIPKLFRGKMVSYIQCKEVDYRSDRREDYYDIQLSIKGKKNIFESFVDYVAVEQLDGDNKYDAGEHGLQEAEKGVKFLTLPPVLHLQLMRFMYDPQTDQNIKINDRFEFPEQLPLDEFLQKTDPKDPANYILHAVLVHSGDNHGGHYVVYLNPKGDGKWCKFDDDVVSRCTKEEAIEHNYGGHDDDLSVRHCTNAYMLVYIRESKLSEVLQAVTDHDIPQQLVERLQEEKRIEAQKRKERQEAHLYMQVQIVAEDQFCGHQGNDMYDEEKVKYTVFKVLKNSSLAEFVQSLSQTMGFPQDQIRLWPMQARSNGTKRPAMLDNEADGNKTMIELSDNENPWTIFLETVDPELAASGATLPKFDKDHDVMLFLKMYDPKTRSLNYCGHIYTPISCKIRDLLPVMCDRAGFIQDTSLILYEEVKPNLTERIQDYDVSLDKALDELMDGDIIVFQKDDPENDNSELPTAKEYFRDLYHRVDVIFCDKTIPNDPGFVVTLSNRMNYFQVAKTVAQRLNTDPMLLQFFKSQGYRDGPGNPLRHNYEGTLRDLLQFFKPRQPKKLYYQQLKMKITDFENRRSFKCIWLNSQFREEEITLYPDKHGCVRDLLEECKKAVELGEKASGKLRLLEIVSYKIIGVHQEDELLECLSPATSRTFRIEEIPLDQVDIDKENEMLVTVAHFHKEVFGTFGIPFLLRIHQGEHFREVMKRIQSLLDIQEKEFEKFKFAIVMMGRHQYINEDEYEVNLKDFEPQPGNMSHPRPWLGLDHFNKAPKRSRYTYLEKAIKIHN

Regarding `CCOC(=O)c1cnn(CC(C)O)c1NC(=O)Nc1cccc(F)c1` (racemic) [STIRUR 41], it took 2770 ± 560 nM to reach half-maximal inhibition (IC50).

The term IC50 denotes the midpoint of a concentration-inhibition curve.

The record behind these values is paper PMC10252683, “Targeting USP-7 by a Novel Fluorinated 5-Pyrazolyl-Urea Derivative” (International Journal of Molecular Sciences, 2023).
